From ChEMBL document CHEMBL2074574, “The interaction and transport of beta-lactam antibiotics with the cloned rat renal organic anion transporter 1” (J Pharmacol Exp Ther, 1999) come the findings set out here.

A word on the Ki: it is a dissociation constant, usually derived from enzyme kinetics or from competition with a known ligand. A lower Ki goes with a stronger hold on the target.

Data set [1] deals with T1, Solute carrier family 22 member 6 (Rattus norvegicus, UniProt O35956).
T1 sequence (O35956 whole entry): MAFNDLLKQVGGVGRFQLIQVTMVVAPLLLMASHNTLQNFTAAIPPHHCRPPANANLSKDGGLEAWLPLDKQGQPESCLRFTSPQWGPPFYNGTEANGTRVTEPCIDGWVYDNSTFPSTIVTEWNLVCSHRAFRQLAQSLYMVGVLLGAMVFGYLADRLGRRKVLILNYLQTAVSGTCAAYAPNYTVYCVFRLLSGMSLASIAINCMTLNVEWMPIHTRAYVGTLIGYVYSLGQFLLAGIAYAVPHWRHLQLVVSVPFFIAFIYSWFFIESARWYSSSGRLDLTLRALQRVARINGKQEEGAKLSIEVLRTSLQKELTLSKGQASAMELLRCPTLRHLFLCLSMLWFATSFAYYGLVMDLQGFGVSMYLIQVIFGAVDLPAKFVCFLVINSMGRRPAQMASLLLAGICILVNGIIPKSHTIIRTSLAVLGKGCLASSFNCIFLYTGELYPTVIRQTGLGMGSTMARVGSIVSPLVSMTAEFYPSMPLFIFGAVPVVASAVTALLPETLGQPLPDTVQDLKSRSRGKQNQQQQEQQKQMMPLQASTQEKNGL
Kind of data set: TP_TRANSPORTER: inhibition of PAH uptake (PAH: 2 uM, Amoxicillin: 2000 uM) in Xenopus laevis oocytes. The class given is functional, cell-based. The note with it: oocyte.

Data set [2] addresses T1, Solute carrier family 22 member 6. Kind of data set: TP_TRANSPORTER: inhibition of PAH uptake (PAH: 2 uM, Cefsulodin: 2000 uM) in Xenopus laevis oocytes. The data set is classed as functional, cell-based. The note with it: oocyte.
For data set [3] the target is unchanged. As to the kind of experiment: TP_TRANSPORTER: inhibition of PAH uptake (PAH: 2 uM, Ceftazidime: 2000 uM) in Xenopus laevis oocytes. The note with it: oocyte. The class given is functional, cell-based.
For data set [4] the target is unchanged. As to the kind of experiment: TP_TRANSPORTER: inhibition of PAH uptake in Xenopus laevis oocytes. The data set is classed as functional, cell-based, Oocyte.
The target is the same in data set [5]. Kind of data set: TP_TRANSPORTER: inhibition of PAH uptake (PAH: 2 uM, Chloramphenicol: 2000 uM) in Xenopus laevis oocytes. The data set is classed as functional, cell-based. Particulars: oocyte.
Data set [6] shares this target. As to the kind of experiment: TP_TRANSPORTER: inhibition of PAH uptake (PAH: 2 uM, Cinoxacin: 2000 uM) in Xenopus laevis oocytes. The class given is functional, cell-based. Particulars: oocyte.
The target is the same in data set [7]. Kind of data set: TP_TRANSPORTER: inhibition of PAH uptake (PAH: 2 uM, Cloxacillin: 2000 uM) in Xenopus laevis oocytes. The data set is classed as functional, cell-based. The note with it: oocyte.
Data set [8] has the same target. As to the kind of experiment: TP_TRANSPORTER: inhibition of PAH uptake (PAH: 2 uM, Nafcillin: 2000 uM) in Xenopus laevis oocytes. The class given is functional, cell-based. The note with it: oocyte.
The target is the same in data set [9]. As to the kind of experiment: TP_TRANSPORTER: inhibition of PAH uptake (PAH: 2 uM, Norfloxacin: 2000 uM) in Xenopus laevis oocytes. The data set is classed as functional, cell-based. Particulars: oocyte.
Data set [10] shares this target. As to the kind of experiment: TP_TRANSPORTER: inhibition of PAH uptake (PAH: 2 uM, OFLX: 2000 uM) in Xenopus laevis oocytes. The class given is functional, cell-based. Particulars: oocyte.
Data set [11] shares this target. Kind of data set: TP_TRANSPORTER: inhibition of PAH uptake (PAH: 2 uM, Piperacillin: 2000 uM) in Xenopus laevis oocytes. The class given is functional, cell-based. Particulars: oocyte.
Data set [12] shares this target. As to the kind of experiment: TP_TRANSPORTER: inhibition of PAH uptake (PAH: 2 uM, Streptomycin: 2000 uM) in Xenopus laevis oocytes. The note with it: oocyte. The class given is functional, cell-based.
The target is the same in data set [13]. Kind of data set: TP_TRANSPORTER: inhibition of PAH uptake (PAH: 2 uM, Vancomycin: 2000 uM) in Xenopus laevis oocytes. Particulars: oocyte. The data set is classed as functional, cell-based.
The target is the same in data set [14]. As to the kind of experiment: TP_TRANSPORTER: inhibition of PAH uptake (PAH: 2 uM, Gentamicin: 2000 uM) in Xenopus laevis oocytes. The data set is classed as functional, cell-based. Particulars: oocyte.

As for `CC1(C)S[C@@H]2[C@H](NC(=O)[C@H](N)c3ccc(O)cc3)C(=O)N2[C@H]1C(=O)O` [AMOXICILLIN], the Activity result in data set [1] is “inhibitor [(at a rough estimate) 20 % of control]”. On to `NC(=O)c1cc[n+](CC2=C(C(=O)O)N3C(=O)[C@@H](NC(=O)[C@@H](c4ccccc4)S(=O)(=O)[O-])[C@H]3SC2)cc1` [CEFSULODIN], for which the Activity entry in data set [2] is “inhibitor [(at a rough estimate) 10 % of control]”. In the case of `CC(C)(O/N=C(\C(=O)N[C@@H]1C(=O)N2C(C(=O)[O-])=C(C[n+]3ccccc3)CS[C@H]12)c1csc(N)n1)C(=O)O` [CEFTAZIDIME], the Activity entry in data set [3] was “inhibitor [(at a rough estimate) 45 % of control]”. In the case of `CC1=C(C(=O)O)N2C(=O)[C@@H](NC(=O)[C@H](N)c3ccccc3)[C@H]2SC1` [CEPHALEXIN ANHYDROUS], the affinity in data set [4] corresponds to a Ki of 2310 µM.

With `O=C(N[C@H](CO)[C@H](O)c1ccc([N+](=O)[O-])cc1)C(Cl)Cl` [CHLORAMPHENICOL], the Activity entry in [5] was “inhibitor [(at a rough estimate) 75% of control]”. `CCn1nc(C(=O)O)c(=O)c2cc3c(cc21)OCO3` [CINOXACIN]: the Activity entry in [6] is “inhibitor [(at a rough estimate) 5 % of control]”. Consider `Cc1onc(-c2ccccc2Cl)c1C(=O)N[C@@H]1C(=O)N2[C@@H]1SC(C)(C)[C@@H]2C(=O)O` [CLOXACILLIN], for which the Activity result in data set [7] is “inhibitor [(at a rough estimate) 5 % of control]”. Consider `CCOc1ccc2ccccc2c1C(=O)N[C@@H]1C(=O)N2[C@@H]1SC(C)(C)[C@@H]2C(=O)O` [NAFCILLIN], for which the Activity result in data set [8] is “inhibitor [(at a rough estimate) <5 % of control]”. With `CCn1cc(C(=O)O)c(=O)c2cc(F)c(N3CCNCC3)cc21` [NORFLOXACIN], the Activity result in data set [9] was “is not an inhibitor [-]”.

With `CC1COc2c(N3CCN(C)CC3)c(F)cc3c(=O)c(C(=O)O)cn1c23` (centres undefined) [OFLOXACIN], the Activity result in data set [10] was “is not an inhibitor [-]”. On to `CCN1CCN(C(=O)N[C@@H](C(=O)N[C@@H]2C(=O)N3[C@@H]2SC(C)(C)[C@@H]3C(=O)O)c2ccccc2)C(=O)C1=O` [PIPERACILLIN], for which, in data set [11], the Activity result is “inhibitor [(at a rough estimate) 5 % of control]”. For `[H]/N=C(/N)N[C@H]1[C@H](O)[C@@H](O)[C@H](O[C@@H]2O[C@@H](C)[C@](O)(C=O)[C@H]2O[C@@H]2O[C@@H](CO)[C@H](O)[C@@H](O)[C@@H]2NC)[C@@H](N/C(N)=N\[H])[C@@H]1O` [STREPTOMYCIN], the Activity result in data set [12] is “is not an inhibitor [-]”.

`CN[C@H](CC(C)C)C(=O)N[C@H]1C(=O)N[C@@H](CC(N)=O)C(=O)N[C@H]2C(=O)N[C@H]3C(=O)N[C@H](C(=O)N[C@H](C(=O)O)c4cc(O)cc(O)c4-c4cc3ccc4O)[C@H](O)c3ccc(c(Cl)c3)Oc3cc2cc(c3O[C@@H]2O[C@H](CO)[C@@H](O)[C@H](O)[C@H]2O[C@H]2C[C@](C)(N)[C@H](O)[C@H](C)O2)Oc2ccc(cc2Cl)[C@H]1O` [VANCOMYCIN]: in [13], the Activity result was “is not an inhibitor [-]”. Regarding GENTAMICIN, in [14], the Activity result is “is not an inhibitor [-]”.
